Consider eight molecules from paper PMC8835841, “Novel NK1R-Targeted ^68Ga-/^177Lu-Radioconjugates with Potential Application against Glioblastoma Multiforme: Preliminary Exploration of Structure–Activity Relationships” (International Journal of Molecular Sciences, 2022).

Each structure is given as a SMILES string. Values joined by “and” are separate entries in the source; they are usually repeats but may differ in a detail not shown here. Identical values can stand only once. Like-named read-outs stand apart in the source and are kept apart here. Square brackets hold non-standard residues; d marks the D form. Peptide text beside a SMILES is read from it. * marks the point of attachment. DOTA = O=C(O)CN1CCN(CC(=O)O)CCN(CC(=O)*)CCN(CC(=O)O)CC1; Met(O2) = CS(=O)(=O)CC[C@H](N)C(=O)O; 2Thi = N[C@@H](Cc1cccs1)C(=O)O

Data set [1] deals with hNK1R Q165A mutant. The note with it: read-out: IC50 Q165A mutant hNK1R; Gln165Ala mutation; cited from earlier work.
Data set [2] concerns hNK1R His197Phe mutation. The following applies: versus wild type; cited from earlier work.
Data set [3] deals with hNK1R His197Ala mutation. The note with it: versus wild type; cited from earlier work.
For data set [4], the target named is T1, hNK1R (Homo sapiens, UniProt P25103).
T1 construct: expressed in transfected cells; host or cells: CHO-K1 (hNK1-CHO), gift from Dr. Attila Keresztes and Dr. John M. Streicher
Briefly: Saturation binding assay of 177Lu-radioconjugates on CHO-NK1R cells. The following applies: for Kd: read-out: Kd ± SD. On the procedure:
The saturation binding studies of ^177Lu-radioconjugates were performed using transfected CHO-NK1R cell line, and all radioconjugates were obtained according to the common labelling protocol given above with the same specific activity. In brief, 10^5 cells per well were seeded into 24-well plates and incubated 24 h before the experiment. […] After that time, the assay medium was collected into plastic tubes and cells were washed twice with cold Dulbecco’s PBS. Subsequently, cells were lysed using 1M NaOH and collected into plastic tubes for radioactivity measurement. The radioactivity of collected medium and lysed cells was measured using a Wizard^2 2-Detector Gamma Counter (PerkinElmer, Waltham, MA, USA) with the energy window of 50–500 keV. The study data came from three independent experiments carried out in duplicate, while the results, presented as the Kd and BMAX with SD, were calculated using a total and nonspecific binding (one site) nonlinear regression curve fit (GraphPad Prism version 8.0, GraphPad, San Diego, CA, USA).

The nature of data set [5]: physchem. Type of data set: physicochemical. Here is the method: A lipophilicity study was also performed right after the SPE method purification and ethanol evaporation. For each DOTA radioconjugate, the lipophilicity value was estimated as the logarithm of the distribution coefficient (D) based on the ratio of the radioactivity of the organic phase to the radioactivity of the aqueous phase in the n-octanol/PBS (pH 7.40) system. Simultaneously, the stability of the studied radioconjugate during the experiment was verified through the HPLC analysis of the aqueous phase.
A solution of isolated radioconjugate (approximately 0.5 MBq for ^177Lu-radioconjugates or 5 MBq for ^68Ga-radioconjugates) in 500 µL of 0.1 M PBS buffer (pH 7.40) and 500 µL of n-octanol was vigorously stirred and centrifuged (13,500 rpm for 5 min) to separate the immiscible phases. Then, the radioactivity of samples from both phases were measured using a well-type NaI(Tl) detector. The distribution coefficient, D, was calculated dividing the radioactivity of the radioconjugate in the organic phase to that in the aqueous phase. Each experiment was performed in triplicate and averaged. In parallel, the aqueous phases were analysed by HPLC to confirm the stability of studied radioconjugate during the experiment period. The lipophilicity value of each radioconjugates was expressed as the logarithm of its D value.

Where [6] appears, read: pH 7.4, logD7.4 (Mean ± SD) 177Lu-.
Setting [7] is: ratio to [177Lu]Lu-DOTA-[Thi8,Met(O2)11]SP.
[8] abbreviates: pH 7.4, logD7.4 (Mean ± SD) 68Ga-.

T1 sequence (P25103 whole entry): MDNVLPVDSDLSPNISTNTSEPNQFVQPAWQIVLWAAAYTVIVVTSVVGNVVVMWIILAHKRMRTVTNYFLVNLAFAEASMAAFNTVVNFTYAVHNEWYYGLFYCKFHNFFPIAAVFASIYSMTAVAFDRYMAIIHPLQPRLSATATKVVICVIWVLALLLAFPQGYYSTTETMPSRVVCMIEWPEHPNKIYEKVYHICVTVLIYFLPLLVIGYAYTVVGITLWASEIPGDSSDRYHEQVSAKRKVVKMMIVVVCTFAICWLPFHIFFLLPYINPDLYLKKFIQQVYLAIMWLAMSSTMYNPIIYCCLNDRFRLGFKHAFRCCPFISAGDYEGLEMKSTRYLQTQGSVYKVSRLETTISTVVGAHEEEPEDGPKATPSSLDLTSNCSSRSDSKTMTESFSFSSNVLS

With `CC(=O)N[C@@H](Cc1c[nH]c2ccccc12)C(=O)OCc1cc(C(F)(F)F)cc(C(F)(F)F)c1` [Compound 1c, 3,5-bis(trifluoromethyl)benzyl acetyl-L-tryptophanate], the IC50 in data set [1] was 8.1 nM. Besides, in data set [2], the “effect of His197Phe mutation on affinity” value is on record as “no effect”. Further, the “decrease of affinity with His197Ala mutation” value in data set [3] is reported as “ten-fold”.

For `CC(C)C[C@H](NC(=O)CNC(=O)[C@H](Cc1cccs1)NC(=O)[C@H](Cc1ccccc1)NC(=O)[C@H](CCC(N)=O)NC(=O)[C@H](CCC(N)=O)NC(=O)[C@@H]1CCCN1C(=O)[C@H](CCCCN)NC(=O)[C@@H]1CCCN1C(=O)[C@H](CCCNC(=N)N)NC(=O)CN1CCN(CC(=O)O)CCN(CC(=O)O)CCN(CC(=O)O)CC1)C(=O)N[C@@H](CCS(C)(=O)=O)C(N)=O` [[^177Lu]Lu-DOTA-[Thi^8,Met(O2)^11]SP, metal not drawn, reference compound] ({DOTA}-RPKPQQF[2Thi]GL[Met(O2)]-NH2; N-terminus and C-terminus assumed), the Kd in data set [4] stood at 6.15 ± 0.64 nM.

`O=C(O)CN1CCN(CC(=O)O)CCN(CC(=O)N[C@@H](Cc2c[nH]c3ccccc23)C(=O)OCc2cc(C(F)(F)F)cc(C(F)(F)F)c2)CCN(CC(=O)O)CC1` [[^177Lu]Lu-1d, metal not drawn] had a logD in data set [5] (setting [6]) of 0.4 ± 0.004. Moreover, in data set [4] (CHO-NK1R cells, 60 min at 37 °C), the “BMAX ± SD” value is 0.762 nM and 0.762 ± 0.046 nM. Further, the Kd in data set [4] (CHO-NK1R cells, 60 min at 37 °C, aprepitant as blocker) came out at 6.98 ± 0.69 nM. In addition, in data set [4] (setting [7]), the “BMAX Ratio to SP” value is reported as 0.82 and the “Kd Ratio to SP” value amounted to 1.13.

The molecule `O=C(O)CN1CCN(CC(=O)O)CCN(CC(=O)N[C@@H](Cc2c[nH]c3ccccc23)C(=O)OCc2cc(C(F)(F)F)cc(C(F)(F)F)c2)CCN(CC(=O)O)CC1` [[^68Ga]Ga-1d, metal not drawn] displayed a logD in data set [5] (setting [8]) of -0.085 ± 0.015.

In data set [5] (setting [6]), `O=C(O)CN1CCN(CC(=O)O)CCN(CC(=O)NCCCCCC(=O)NCCCCCC(=O)N[C@@H](Cc2c[nH]c3ccccc23)C(=O)OCc2cc(C(F)(F)F)cc(C(F)(F)F)c2)CCN(CC(=O)O)CC1` [[^177Lu]Lu-5d, metal not drawn] had a log distribution coefficient (logD) of 0.294 ± 0.013.

In turn, `O=C(O)CN1CCN(CC(=O)O)CCN(CC(=O)NCCCCCC(=O)N[C@@H](Cc2c[nH]c3ccccc23)C(=O)OCc2cc(C(F)(F)F)cc(C(F)(F)F)c2)CCN(CC(=O)O)CC1` [[^68Ga]Ga-4d, metal not drawn] yielded a log distribution coefficient (logD) in data set [5] (setting [8]) of 0.071 ± 0.023.

Molecule `C[C@@H](NC(=O)CN1CCN(CC(=O)O)CCN(CC(=O)O)CCN(CC(=O)O)CC1)C(=O)N[C@@H](Cc1c[nH]c2ccccc12)C(=O)OCc1cc(C(F)(F)F)cc(C(F)(F)F)c1` [[^177Lu]Lu-2d, metal not drawn] gave a log distribution coefficient (logD) in data set [5] (setting [6]) of 0.704 ± 0.005.

For `C[C@@H](NC(=O)CN1CCN(CC(=O)O)CCN(CC(=O)O)CCN(CC(=O)O)CC1)C(=O)N[C@H](C)C(=O)N[C@@H](Cc1c[nH]c2ccccc12)C(=O)OCc1cc(C(F)(F)F)cc(C(F)(F)F)c1` [[^177Lu]Lu-3d, metal not drawn], in data set [5] (setting [6]), the pH-dependent lipophilicity (logD) amounted to 0.619 ± 0.007.
